From patent US20180055032A1, “ODORS FOR PSYLLID TRAPPING, REPELLING AND CONTROL” (The Regents of the University of California, priority 2011, published 2018)
Read-outs that look alike come from different tables or passages of the source.

What was measured:
Type in all cases: cell-based, Diaphorina citri
[1] = system: neuron 6A (rhinarial plate on flagellomere 6); assay: single-sensillum electrophysiology, odor response of neuron 6A; details: for odor response (frequency of action potentials during stimulus minus baseline), 6A: Table 1, odor diluted to 1%, 50 μL in cartridge; for response to inhibitory odors, 6A: Table 2, odor diluted to 10^−2, 50 μL in cartridge; as to response to inhibitory odors, 6A: key: 0, no response; +, >50 spikes/second; ++, >100 spikes/second; +++, >150 spikes/second
[2] = system: neuron 4A (rhinarial plate on flagellomere 4); assay: single-sensillum electrophysiology, odor response of neuron 4A; details: for odor response (frequency of action potentials during stimulus minus baseline), 4A: Table 1, odor diluted to 1%, 50 μL in cartridge; for response to inhibitory odors, 4A: Table 2, odor diluted to 10^−2, 50 μL in cartridge; as to response to inhibitory odors, 4A: key: 0, no response; +, >50 spikes/second; ++, >100 spikes/second; +++, >150 spikes/second
[3] = system: neuron 2C (rhinarial plate on flagellomere 2); assay: single-sensillum electrophysiology, odor response of neuron 2C; details: for odor response (frequency of action potentials during stimulus minus baseline), 2C: Table 1, odor diluted to 1%, 50 μL in cartridge; for response to inhibitory odors, 2C: Table 2, odor diluted to 10^−2, 50 μL in cartridge
[4] = system: neuron 6B (rhinarial plate on flagellomere 6); assay: single-sensillum electrophysiology, odor response of neuron 6B; details: for odor response (frequency of action potentials during stimulus minus baseline), 6B: Table 1, odor diluted to 1%, 50 μL in cartridge; for response to inhibitory odors, 6B: Table 2, odor diluted to 10^−2, 50 μL in cartridge
[5] = system: neuron 2B (rhinarial plate on flagellomere 2); assay: single-sensillum electrophysiology, odor response of neuron 2B; details: for odor response (frequency of action potentials during stimulus minus baseline), 2B: Table 1, odor diluted to 1%, 50 μL in cartridge; for response to inhibitory odors, 2B: Table 2, odor diluted to 10^−2, 50 μL in cartridge
[6] = system: neuron 4C (rhinarial plate on flagellomere 4); assay: single-sensillum electrophysiology, odor response of neuron 4C; details: for odor response (frequency of action potentials during stimulus minus baseline), 4C: Table 1, odor diluted to 1%, 50 μL in cartridge; for response to inhibitory odors, 4C: Table 2, odor diluted to 10^−2, 50 μL in cartridge
[7] = system: neuron 7B (rhinarial plate on flagellomere 7); details: for odor response (frequency of action potentials during stimulus minus baseline), 7B: Table 1, odor diluted to 1%, 50 μL in cartridge
[8] = system: neuron 6C (rhinarial plate on flagellomere 6); assay: single-sensillum electrophysiology, odor response of neuron 6C; details: for odor response (frequency of action potentials during stimulus minus baseline), 6C: Table 1, odor diluted to 1%, 50 μL in cartridge; for response to inhibitory odors, 6C: Table 2, odor diluted to 10^−2, 50 μL in cartridge
[9] = system: neuron 7A (rhinarial plate on flagellomere 7); assay: single-sensillum electrophysiology, odor response of neuron 7A; details: for odor response (frequency of action potentials during stimulus minus baseline), 7A: Table 1, odor diluted to 1%, 50 μL in cartridge; for response to inhibitory odors, 7A: Table 2, odor diluted to 10^−2, 50 μL in cartridge; as to all read-outs here: key: 0, no response; +, >50 spikes/second; ++, >100 spikes/second; +++, >150 spikes/second
[10] = system: neuron 4B (rhinarial plate on flagellomere 4); details: for odor response (frequency of action potentials during stimulus minus baseline), 4B: Table 1, odor diluted to 1%, 50 μL in cartridge
[11] = system: neuron 2A (rhinarial plate on flagellomere 2); assay: single-sensillum electrophysiology, odor response of neuron 2A; details: for odor response (frequency of action potentials during stimulus minus baseline), 2A: Table 1, odor diluted to 1%, 50 μL in cartridge; for response to inhibitory odors, 2A: Table 2, odor diluted to 10^−2, 50 μL in cartridge; as to all read-outs here: key: 0, no response; +, >50 spikes/second; ++, >100 spikes/second; +++, >150 spikes/second
[12] = system: neuron 7C (rhinarial plate on flagellomere 7); assay: single-sensillum electrophysiology, odor response of neuron 7C; details: for odor response (frequency of action potentials during stimulus minus baseline), 7C: Table 1, odor diluted to 1%, 50 μL in cartridge; for response to inhibitory odors, 7C: Table 2, odor diluted to 10^−2, 50 μL in cartridge
[13] = Table 2, odor diluted to 10^−2, 50 μL in cartridge

| SMILES | odor response (frequency of action potentials during stimulus minus baseline), 6A [1] | odor response (frequency of action potentials during stimulus minus baseline), 4A [2] | odor response (frequency of action potentials during stimulus minus baseline), 2C [3] | odor response (frequency of action potentials during stimulus minus baseline), 6B [4] | odor response (frequency of action potentials during stimulus minus baseline), 2B [5] | odor response (frequency of action potentials during stimulus minus baseline), 4C [6] | odor response (frequency of action potentials during stimulus minus baseline), 7B [7] | odor response (frequency of action potentials during stimulus minus baseline), 6C [8] | odor response (frequency of action potentials during stimulus minus baseline), 7A [9] | odor response (frequency of action potentials during stimulus minus baseline), 4B [10] | odor response (frequency of action potentials during stimulus minus baseline), 2A [11] | odor response (frequency of action potentials during stimulus minus baseline), 7C [12] | response to inhibitory odors, 6A [1] | response to inhibitory odors, 4A [2] | response to inhibitory odors, 2C [3] | response to inhibitory odors, 6B [4] | response to inhibitory odors, 4C [6] | response to inhibitory odors, 6C [8] | response to inhibitory odors, 7A [9] | response to inhibitory odors, 2A [11] | also measured |
| --- | --- | --- | --- | --- | --- | --- | --- | --- | --- | --- | --- | --- | --- | --- | --- | --- | --- | --- | --- | --- | --- |
| CCCC(=O)OC [methyl butyrate] | 0 | 0 | 0 | + (+, >50 spikes/second) | 0 | 0 | 0 | 0 | 0 | ++ (++, >100 spikes/second) | 0 | + (+, >50 spikes/second) |  |  |  |  |  |  |  |  |  |
| C=C1CC/C=C(\C)CC[C@@H]2[C@@H]1CC2(C)C [β-caryophyllene] | 0 | 0 | 0 | 0 | ++ (++, >100 spikes/second) | 0 | + (+, >50 spikes/second) | 0 | 0 | 0 | 0 | 0 |  |  |  |  |  |  |  |  |  |
| CC(=O)CCC=C(C)C [6-methyl-5-hepten-2-one] | 0 | 0 | + (+, >50 spikes/second) | 0 | 0 | 0 | 0 | 0 | 0 | 0 | 0 | 0 |  |  |  |  |  |  |  |  |  |
| CC/C=C\CC=O [Z3-hexenal] | ++ (++, >100 spikes/second) | ++ (++, >100 spikes/second) | 0 | 0 | 0 | 0 | + (+, >50 spikes/second) | 0 | 0 | 0 | 0 | 0 |  |  |  |  |  |  |  |  |  |
| C=CCSSSCC=C [diallyl trisulfide] | 0 | 0 | 0 | + (+, >50 spikes/second) | 0 | 0 | 0 | 0 | 0 | + (+, >50 spikes/second) | 0 | 0 |  |  |  |  |  |  |  |  |  |
| CC(=O)C(C)=O [2,3-butanedione] |  |  |  |  |  |  |  |  |  |  |  |  | 0 | 0 | 0 | 0 | 0 | 0 | 0 | 0 | response to inhibitory odors, 7B [7, 13]: 0; response to inhibitory odors, 4B [10, 13]: 0; response to inhibitory odors, 7C [12]: 0 |
| CN1CCCCC1 [N-methylpiperidine] |  |  |  |  |  |  |  |  |  |  |  |  | 0 | 0 | 0 | 0 | 0 | 0 | 0 | 0 | response to inhibitory odors, 2B [5]: 0; response to inhibitory odors, 7B [7, 13]: 0; response to inhibitory odors, 4B [10, 13]: 0 |
| C=C(C)C1CC=C(C=O)CC1 (stereo not drawn) [perillaldehyde] | 0 | 0 |  | + (+, >50 spikes/second) | 0 | 0 | 0 | 0 | 0 | + (+, >50 spikes/second) | 0 | 0 | 0 | 0 |  | 0 | 0 | 0 | 0 | 0 | response to inhibitory odors, 2B [5]: 0; response to inhibitory odors, 7B [7, 13]: 0; response to inhibitory odors, 4B [10, 13]: 0; response to inhibitory odors, 7C [12]: 0 |
| Cl.Cl.NCCCCN [putrescine dihydrochloride] |  |  |  |  |  |  |  |  |  |  |  |  | 0 | 0 | 0 | 0 | 0 | 0 | 0 | 0 | response to inhibitory odors, 7B [7]: 0; response to inhibitory odors, 4B [10]: 0; response to inhibitory odors, 7C [12]: 0 |
| CCCCC(=O)O [pentanoic acid] |  |  |  |  |  |  |  |  |  |  |  |  | 0 | 0 | 0 | 0 | 0 | 0 | 0 | 0 | response to inhibitory odors, 2B [5]: 0; response to inhibitory odors, 4B [10, 13]: 0; response to inhibitory odors, 7C [12]: 0 |
